From US12268694B2, “Combination pharmaceutical agents as RSV inhibitors” (Enanta Pharmaceuticals, Inc., priority 2017, dated 2025) come the findings set out here.

Like-named read-outs stand apart in the source and are kept apart here.

The assay deals with genotype A, "Long" strain RSV. The assay can be described thus: RSV-A assay: CPE protection in HEp-2 cells, ATPlite readout. The format is cell-based, human respiratory syncytial virus. A digest of the protocol:
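EC50 derives from ATPlite luminescence after 5-day culture of RSV Long-infected (MOI 0.1) HEp-2 cells, seeded 8,000/well, exposed to duplicate 2-fold compound series. CC50 comes from an identical plate receiving medium instead of virus.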
Background: In ATP-based viability assays light output follows the ATP content of the culture.

Setting [1] is: human respiratory syncytial virus, HEp-2, read-out: Human RSV-A (“Long” strain) EC50.
[2] abbreviates: HEp-2 cells, RSV-A Long strain, ATPlite readout, read-out: Human RSV-A (“Long” strain) EC50.

In general, EC50 refers to the concentration that produces a half-maximal response. With `CN1CCN(c2cc(C(F)(F)F)cnc2-c2nnc(N[C@H]3N=C(c4ccccc4)c4ccccc4NC3=O)o2)CC1` [Example 327], under setting [1], the EC50 was 0.4 to 0.8 µM.

Take `O=C1Nc2ccccc2C(c2ccccc2)=N[C@@H]1Nc1nnc(-c2sc(Br)cc2N2CCOCC2)o1` [Example 182]: the EC50 under setting [1] was under 0.4 µM.

On to `N#Cc1ccc(-c2nnc(N[C@H]3N=C(c4ccccc4)c4ccccc4NC3=O)o2)c(-c2ccsc2)c1` [Example 309], for which, under setting [1], the EC50 is over 0.8 µM.

`O=C1Nc2ccccc2C(c2ccccc2)=N[C@@H]1Nc1nnc(-c2oc3ncccc3c2N2CCOCC2)o1` [Example 404]: under setting [1], the EC50 is under 0.4 µM.

Regarding `COCCNc1sc(C(F)(F)F)nc1-c1nnc(N[C@H]2N=C(c3ccccc3)c3ccccc3NC2=O)o1` [Example 473], the EC50 under setting [1] is under 0.4 µM.

As to `COCc1nnc(NC2N=C(c3ccccc3)c3ccccc3NC2=O)o1` (stereo not shown) [Example 191], the EC50 under setting [1] was over 0.8 µM.

`O=C1Nc2ccccc2C(c2ccccc2)=N[C@@H]1Nc1nnc(-c2cnc(C(F)(F)F)nc2N2CC3CCC(C2)O3)o1` [Example 290]: the concentration giving a half-maximal response (EC50) under setting [1] was over 0.8 µM.

As to `O=C1Nc2ccccc2C(c2ccccc2)=N[C@H]1Nc1nnc(-c2nc(C(F)(F)F)sc2N2CCO[C@H]3C[C@H]32)o1` [Example 487], the EC50 under setting [2] was over 0.8 µM.

On to `O=C1Nc2ccccc2C(c2ccccc2)=N[C@H]1Nc1nnc(-c2cn(CC(F)(F)F)nc2N2CCOCC2)o1` [Example 488], for which the half-maximal effective concentration (EC50) under setting [2] is under 0.4 µM.

On to `O=C1Nc2c(F)cccc2C(c2ccccc2)=N[C@@H]1Nc1nnc(-c2ncc(C(F)(F)F)cc2N2CCOCC2)o1` (single isomer, unassigned) [Example 359], for which the concentration giving a half-maximal response (EC50) under setting [2] was under 0.4 µM.

For `Cc1ccc(-c2nnc(N[C@H]3N=C(c4ccccc4)c4ccccc4NC3=O)o2)c(N2C3CCC2COC3)n1` [Example 280], the concentration for a half-maximal effect (EC50) under setting [1] is under 0.4 µM.

As for `O=C1Nc2ccccc2C(c2ccccc2)=NC1Nc1nnc(-c2cc(C(F)(F)F)cnc2N2CCOCC2)o1` (stereo not shown) [Example 146], the half-maximal effective concentration (EC50) under setting [1] was over 0.8 µM.

As to `O=C1Nc2ccccc2C(c2ccccc2)=NC1Nc1ccc(-c2ccccc2N2CCOCC2)nn1` (stereo not shown) [Example 378], the concentration giving a half-maximal response (EC50) under setting [1] is over 0.8 µM.

For `O=C1Nc2ccccc2C(c2ccccc2)=N[C@@H]1Nc1nnc(-c2nc(C(F)(F)F)sc2NCC2COC2)o1` [Example 475], the 50% effective concentration (EC50) under setting [1] lay within 0.4 to 0.8 µM.

On to `O=C1Nc2ccccc2C(c2ccccc2)=NC1Nc1nnc(-c2cccnc2N2C[C@@H]3C[C@H]2CO3)o1` (stereo partly shown) [Example 248], for which the half-maximal effective concentration (EC50) under setting [1] is over 0.8 µM.

As for `CN1CCC(N2CCC[C@H]2c2nnc(NC3N=C(c4ccccc4)c4ccccc4NC3=O)o2)CC1` (stereo partly shown) [Example 228], under setting [1], the EC50 was over 0.8 µM.

For the molecule `Cc1nc(-c2nnc(NC3N=C(c4ccccc4)c4ccccc4NC3=O)o2)ccc1C#N` (stereo not shown) [Example 200], the EC50 under setting [1] fell in the range of 0.4 to 0.8 µM.

`O=C1Nc2ccccc2C(c2ccccc2)=N[C@@H]1Nc1nnc(-c2ccc(N3C4CCC3COC4)cc2Cl)o1` [Example 244]: under setting [1], the EC50 is over 0.8 µM.

On to `O=C1Nc2ccccc2C(c2ccccc2)=N[C@@H]1Nc1nnc(-c2nc(C(F)(F)C(F)(F)F)sc2N2CCOCC2)o1` [Example 454], for which the concentration for a half-maximal effect (EC50) under setting [1] was under 0.4 µM.

Turning to `O=C1Nc2ccccc2C(c2ccccc2)=N[C@@H]1Nc1ncc(-c2ncc(C(F)(F)F)cc2N2CCOCC2)o1` [Example 442], the EC50 under setting [2] is under 0.4 µM.

Regarding `N#CC1CN(c2ncccc2-c2nnc(NC3N=C(c4ccccc4)c4ccccc4NC3=O)o2)C1` (stereo not shown) [Example 274], under setting [1], the EC50 is over 0.8 µM.

Regarding `O=C1Nc2ccccc2C(c2ccccc2)=N[C@@H]1Nc1nnc(-c2cn(-c3ccc(F)cn3)nc2N2CCOCC2)o1` [Example 448], the concentration giving a half-maximal response (EC50) under setting [1] is under 0.4 µM.

Regarding `O=C1Nc2ccccc2C(c2ccccc2)=NC1Nc1nnc(-c2cccc(N3CCOCC3)c2)o1` (stereo not shown) [Example 111], the concentration giving a half-maximal response (EC50) under setting [1] was over 0.8 µM.

As to `COCCn1c(-c2nnc(N[C@H]3N=C(c4ccccc4)c4ccccc4NC3=O)o2)nc2ccccc21` [Example 298], the EC50 under setting [1] is over 0.8 µM.

Take `O=C1Nc2ccccc2C(c2ccccc2)=NC1Nc1nnc(-c2cnccc2N2CCCCC2)o1` (stereo not shown) [Example 134]: the EC50 under setting [1] is over 0.8 µM.

On to `O=C1Nc2ccccc2C(c2ccccc2)=N[C@@H]1Nc1nnc(-c2ccc(F)nc2N2CCOCC2)o1` [Example 151, (S)-3-((5-(6-fluoro-2-morpholinopyridin-3-yl)-1,3,4-oxadiazol-2-yl)amino)-5-phenyl-1,3-dihydro-2H-benzo[e][1,4]diazepin-2-one], for which, under setting [1], the 50% effective concentration (EC50) was under 0.4 µM.

As for `O=C1Nc2ccccc2C(c2ccccc2)=N[C@@H]1Nc1nnc(-c2cnc(-n3cncn3)nc2N2CCOCC2)o1` [Example 173], the EC50 under setting [1] is over 0.8 µM.

Consider `O=C1Nc2ccccc2C(c2ccccc2)=N[C@@H]1Nc1nnc(-c2ccc(C(F)(F)F)nc2N2C3CCC2COC3)o1` [Example 275], for which the EC50 under setting [1] is over 0.8 µM.

For the molecule `Cc1cc(-c2nnc(NC3N=C(c4ccccc4)c4ccccc4NC3=O)o2)ccc1N1CCOCC1` (stereo not shown) [Example 113], the 50% effective concentration (EC50) under setting [1] was 0.4 to 0.8 µM.

For `COCCN1CCCn2ncc(-c3nnc(N[C@H]4N=C(c5ccccc5)c5ccccc5NC4=O)o3)c21` [Example 438], under setting [1], the EC50 fell in the range of 0.4 to 0.8 µM.

As for `Cc1nc(-c2nnc(NC3N=C(c4ccccc4)c4ccccc4NC3=O)o2)ccc1F` (stereo not shown) [Example 110], the EC50 under setting [1] was over 0.8 µM.

As to `O=C1Nc2ccccc2C(c2ccccc2)=N[C@@H]1Nc1nnc(-c2cn(-c3ccc(C(F)(F)F)cn3)nc2N2CCOCC2)o1` [Example 440], the concentration for a half-maximal effect (EC50) under setting [1] fell in the range of 0.4 to 0.8 µM.

For `O=C1Nc2ccccc2C(c2ccccc2)=N[C@@H]1Nc1nnc(-c2nc(-c3ccc(C(F)(F)F)nc3)sc2N2CCOCC2)o1` [Example 390], the EC50 under setting [1] was under 0.4 µM.

On to `O=C1Nc2ccccc2C(c2ccccc2)=N[C@@H]1Nc1nnc(-c2nc(-c3ccc(F)cc3)sc2N2CCOCC2)o1` [Example 428], for which, under setting [1], the EC50 is under 0.4 µM.

For `O=C1Nc2ccccc2C(c2ccccc2)=N[C@@H]1Nc1nnc(-c2ncc(N3CCCC3)cc2N2CCOCC2)o1` [Example 314], the half-maximal effective concentration (EC50) under setting [1] was under 0.4 µM.

As to `O=C1Nc2ccccc2C(c2ccccc2)=NC1Nc1nnc(C2CC3(CCNCC3)C2)o1` (stereo not shown) [Example 222], the EC50 under setting [1] is over 0.8 µM.

Take `N#Cc1cnc(-c2nnc(NC3N=C(c4ccccc4)c4ccccc4NC3=O)o2)c(N2CCOCC2)c1` (stereo not shown) [Example 140]: under setting [1], the half-maximal effective concentration (EC50) was under 0.4 µM.

With `O=C1Nc2ccccc2C(c2ccccc2)=N[C@@H]1Nc1nnc(-c2nc(-c3ccccc3F)sc2N2CCOCC2)o1` [Example 427], the EC50 under setting [1] was under 0.4 µM.

For `N#Cc1ccc(-c2nnc(N[C@H]3N=C(c4ccccc4)c4ccccc4NC3=O)o2)c(N2C3CCC2COC3)c1` [Example 289], under setting [1], the half-maximal effective concentration (EC50) is under 0.4 µM.

Take `CC1(Nc2nnc(-c3ccc(F)cc3)o2)N=C(c2ccccc2)c2ccccc2NC1=O` (stereo not shown) [Example 230]: under setting [1], the EC50 was over 0.8 µM.

For `O=C1Nc2ccccc2C(c2ccccc2)=N[C@@H]1Nc1nnc(-c2ccnn2-c2ccccc2)o1` [Example 349], under setting [1], the EC50 was over 0.8 µM.

As to `O=C1Nc2ccccc2C(c2ccccc2)=N[C@@H]1Nc1nnc(-c2ccccc2N2CCOCC2)o1` [Example 125a], the EC50 under setting [1] was under 0.4 µM.

On to `N#Cc1cnc(-c2nnc(N[C@H]3N=C(c4ccccc4)c4cccc(F)c4NC3=O)o2)c(N2CCOCC2)c1` [Example 361], for which the EC50 under setting [1] is under 0.4 µM.

On to `CC(C)(O)c1nc(-c2nnc(N[C@H]3N=C(c4ccccc4)c4ccccc4NC3=O)o2)c(N2CCOCC2)s1` [Example 437], for which the EC50 under setting [1] was under 0.4 µM.

Regarding `O=C1Nc2ccccc2C(c2ccccc2)=NC1Nc1nnc(C2(F)CC2)o1` (stereo not shown) [Example 204], the EC50 under setting [1] was over 0.8 µM.

For `CC(C)(C)c1nnc(NC2N=C(c3ccccc3)c3ccccc3NC2=O)o1` (stereo not shown) [Example 189], under setting [1], the EC50 is over 0.8 µM.
